Holding throughout (type): biochemical
The target in one test is JAK2 (Homo sapiens (Human), UniProt O60674). Kind of test: JAK kinase assay (HTRF), JAK2. To be noted: catalytic domain, His-tag, ATP at Km (4 μM). The protocol:
(§1) Human baculovirus-expressed JAK1, 2, 3 and TYK2 were purchased from Carna Biosciences, Inc. All four purified enzymes contain only the catalytic domain. JAK1 (aa 850-1154) and TYK2 (aa 871-1187) are expressed with an N-terminally fused GST-tag, and JAK2 and JAK3 with an N-terminally fused His-tag.
(§2) Inhibition of phosphorylation of a synthetic peptide was measured in an HTRF-based assay using the TK substrate-Biotin from the Cisbio HTRFKinEASE TK kit. First, 2 μl of TK solution (TK substrate-biotin in kinase buffer [1× enzymatic buffer from HTRFKinEASE TK kit, 1 mM DTT]) is added to a plate containing 1 μl prediluted compound (final assay concentration DMSO: 0.75%). Then, 5 μl kinase-ATP mix (prepared in kinase buffer) is added to the wells and the plates are incubated at RT for 20-30 min. For all four kinases a concentration of ATP that corresponded to the Km for ATP was used. The final concentrations of buffers, substrate, kinase and ATP were: JAK1: 50 mM Hepes buffer pH 7.0, 0.01% BSA, 10 mM MgCl2, 1 mM DTT, 7 μM ATP, 50 nM SEB, 1 μM TK Substrate-Biotin and 5 ng JAK1; JAK2: 50 mM Hepes buffer pH 7.0, 0.01% BSA, 5 mM MgCl2, 1 mM DTT, 4 μM ATP, 1 μM TK Substrate-Biotin and 0.1 ng JAK2; JAK3: 50 mM Hepes buffer pH 7.0, 0.01% BSA, 5 mM MgCl2, 1 mM DTT, 2 μM ATP, 1 μM TK Substrate-Biotin and 0.3 ng JAK3; TYK2: 50 mM Hepes buffer pH 7.0, 0.01% BSA, 5 mM MgCl2, 1 mM DTT, 13 μM ATP, 50 nM SEB, 1 μM TK Substrate-Biotin and 0.8 ng TYK2. Thereafter, the kinase reaction is stopped by adding 4 μl detection mix (final concentrations: 50 mM Hepes buffer pH 7.0, 0.01% BSA, 0.8 M KF, 20 mM EDTA, 42 nM Streptavidin-XL665 and 1:400 STK Ab Cryptate) and the plates are incubated overnight in the dark. The HTRF signal is read using an Envision plate reader.
(Time-resolved FRET reads energy transfer from a long-lived donor to a nearby acceptor.)

The target in the next test is JAK3 (Homo sapiens (Human), UniProt P52333). As to the kind of experiment: JAK kinase assay (HTRF), JAK3. To be noted: catalytic domain, His-tag, ATP at Km (2 μM). As to the method: as §1, §2
The next test has as its target TYK2 (Homo sapiens (Human), UniProt P29597). As to the kind of experiment: JAK kinase assay (HTRF), TYK2. Particulars: catalytic domain (aa 871-1187), GST-tag, ATP at Km (13 μM). The protocol: as §1, §2
The next test has as its target JAK1 (Homo sapiens (Human), UniProt P23458). Kind of test: JAK kinase assay (HTRF), JAK1. Particulars: catalytic domain (aa 850-1154), GST-tag, ATP at Km (7 μM). As to the method:
as §1, §2

pEC50: −log10 of the molar value.

As usually defined, the pEC50 is the negative decadic logarithm of the EC50, by convention in mol/L.

JAK2, sequence (O60674 849-1124): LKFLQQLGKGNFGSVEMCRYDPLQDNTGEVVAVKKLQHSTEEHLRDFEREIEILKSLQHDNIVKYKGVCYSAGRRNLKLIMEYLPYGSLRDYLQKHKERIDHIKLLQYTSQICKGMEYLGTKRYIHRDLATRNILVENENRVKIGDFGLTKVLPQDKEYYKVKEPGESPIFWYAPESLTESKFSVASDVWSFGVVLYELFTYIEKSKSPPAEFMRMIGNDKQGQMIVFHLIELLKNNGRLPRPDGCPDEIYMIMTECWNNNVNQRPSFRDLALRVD
JAK1, sequence (P23458 850-1154): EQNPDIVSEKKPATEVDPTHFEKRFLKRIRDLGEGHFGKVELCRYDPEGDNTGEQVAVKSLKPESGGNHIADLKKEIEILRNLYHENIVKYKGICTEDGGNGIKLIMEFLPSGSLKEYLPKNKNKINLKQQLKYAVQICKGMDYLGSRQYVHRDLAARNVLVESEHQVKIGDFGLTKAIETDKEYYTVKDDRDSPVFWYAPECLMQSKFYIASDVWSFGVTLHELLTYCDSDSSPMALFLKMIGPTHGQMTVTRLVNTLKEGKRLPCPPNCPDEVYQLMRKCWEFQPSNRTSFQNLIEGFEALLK
TYK2, sequence (P29597 871-1187): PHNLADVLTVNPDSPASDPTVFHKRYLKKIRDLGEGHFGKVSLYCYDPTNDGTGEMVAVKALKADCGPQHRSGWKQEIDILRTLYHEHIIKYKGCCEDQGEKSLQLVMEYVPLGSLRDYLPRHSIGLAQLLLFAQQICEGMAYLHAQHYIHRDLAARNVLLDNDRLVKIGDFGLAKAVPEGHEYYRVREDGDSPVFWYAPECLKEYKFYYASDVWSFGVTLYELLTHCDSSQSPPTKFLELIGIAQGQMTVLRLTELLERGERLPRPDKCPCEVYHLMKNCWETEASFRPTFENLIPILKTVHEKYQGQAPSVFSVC
JAK3, sequence (P52333 822-1111): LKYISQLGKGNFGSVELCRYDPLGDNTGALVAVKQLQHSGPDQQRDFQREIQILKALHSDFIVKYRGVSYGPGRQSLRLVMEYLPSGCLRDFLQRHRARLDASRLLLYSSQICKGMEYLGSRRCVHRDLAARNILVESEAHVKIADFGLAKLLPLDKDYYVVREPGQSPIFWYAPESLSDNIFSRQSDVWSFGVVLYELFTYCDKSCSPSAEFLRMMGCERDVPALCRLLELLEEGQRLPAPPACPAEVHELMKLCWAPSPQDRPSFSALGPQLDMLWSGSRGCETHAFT

`C[C@]12CN(c3cnc(C#N)cn3)CC[C@H]1CCN(c1ncnc3[nH]ccc13)C2` (racemic) [Example 4, 5-[(4aR*,8aS*)-8a-methyl-7-(7H-pyrrolo[2,3-d]pyrimidin-4-yl)-3,4,4a,5,6,8-hexahydro-1H-2,7-naphthyridin-2-yl]pyrazine-2-carbonitrile]: the negative-log EC50 (pEC50) on JAK2 was 7.60; on JAK3 it was 8.40; on TYK2, 6.83; at JAK1, 8.40.

For the compound `C[C@]12CN(c3ccc(C#N)cn3)CC[C@H]1CCN(c1ncnc3[nH]ccc13)C2` (racemic) [Example 5, 6-[(4aR*,8aS*)-8a-methyl-7-(7H-pyrrolo[2,3-d]pyrimidin-4-yl)-3,4,4a,5,6,8-hexahydro-1H-2,7-naphthyridin-2-yl]pyridine-3-carbonitrile], the negative logarithm of the EC50 (pEC50) on JAK2 was 7.10; at JAK3 it was 8.15; on TYK2 it was 6.34; on JAK1 it was 8.00.

Consider `C[C@]12CN(c3ccc(C#N)nn3)CC[C@H]1CCN(c1ncnc3[nH]ccc13)C2` (racemic) [Example 6, 6-[(4aR*,8aS*)-8a-methyl-7-(7H-pyrrolo[2,3-d]pyrimidin-4-yl)-3,4,4a,5,6,8-hexahydro-1H-2,7-naphthyridin-2-yl]pyridazine-3-carbonitrile], for which the pEC50 on JAK2 was 7.19; on JAK3, 8.05; on TYK2, 6.20; at JAK1, 7.77.

On to `C[C@]12CN(c3ncc(C#N)cn3)CC[C@H]1CCN(c1ncnc3[nH]ccc13)C2` (racemic) [Example 7, 2-[(4aR*,8aS*)-8a-methyl-7-(7H-pyrrolo[2,3-d]pyrimidin-4-yl)-3,4,4a,5,6,8-hexahydro-1H-2,7-naphthyridin-2-yl]pyrimidine-5-carbonitrile], for which the pEC50 was 6.85 on JAK2, 8.30 on JAK3, 6.13 at TYK2 and 7.34 on JAK1.

For the compound `C[C@@]12CN(c3ncnc4[nH]ccc34)CC[C@@H]1CCN(S(N)(=O)=O)C2` (racemic) [Example 9, (4aR*,8aS*)-8a-methyl-7-(7H-pyrrolo[2,3-d]pyrimidin-4-yl)-3,4,4a,5,6,8-hexahydro-1H-2,7-naphthyridine-2-sulfonamide], the negative-log EC50 (pEC50) at JAK2 is 7.24; on JAK3 it was 8.10; on TYK2, 6.62; at JAK1, 7.41.

As to `Cc1nc(N2CC[C@H]3CCN(c4ncnc5[nH]ccc45)C[C@@]3(C)C2)ccc1C#N` (racemic) [Example 10, 6-[(4aS*,8aR*)-8a-methyl-7-(7H-pyrrolo[2,3-d]pyrimidin-4-yl)-3,4,4a,5,6,8-hexahydro-1H-2,7-naphthyridin-2-yl]-2-methyl-pyridine-3-carbonitrile], the negative-log EC50 (pEC50) on JAK2 is 6.33; on JAK3, 6.69; at TYK2 it was 5.41; at JAK1, 6.95.

With `Cc1cc(C#N)cnc1N1CC[C@H]2CCN(c3ncnc4[nH]ccc34)C[C@@]2(C)C1` (racemic) [Example 11, 6-[(4aS*,8aR*)-8a-methyl-7-(7H-pyrrolo[2,3-d]pyrimidin-4-yl)-3,4,4a,5,6,8-hexahydro-1H-2,7-naphthyridin-2-yl]-5-methyl-pyridine-3-carbonitrile], the pEC50 at JAK2 is 6.42; on JAK3, 7.07; on TYK2, 6.01; on JAK1, 7.07.

Turning to `C[C@@]12CN(c3ncnc4[nH]ccc34)CC[C@@H]1CCN(S(C)(=O)=O)C2` (racemic) [Example 13, (4aR*,8aS*)-8a-methyl-2-methylsulfonyl-7-(7H-pyrrolo[2,3-d]pyrimidin-4-yl)-3,4,4a,5,6,8-hexahydro-1H-2,7-naphthyridine], the negative-log EC50 (pEC50) at JAK2 was 7.05; on JAK3 it was 7.12; at TYK2, 6.49; on JAK1, 7.14.

Take `C[C@@]12CN(c3ncnc4[nH]ccc34)CC[C@@H]1CN(S(C)(=O)=O)C2` (racemic) [Example 26, 4-[(3aS*,7aS*)-3a-methyl-2-methylsulfonyl-1,3,4,6,7,7a-hexahydropyrrolo[3,4-c]pyridin-5-yl]-7H-pyrrolo[2,3-d]pyrimidine]: the pEC50 is 6.81 on JAK2, 6.61 at JAK3, 6.05 on TYK2 and 7.03 at JAK1.

For the compound `C[C@@]12CN(c3ncnc4[nH]ccc34)CC[C@@H]1CN(S(N)(=O)=O)C2` (racemic) [Example 27, (3aS*,7aS*)-3a-methyl-5-(7H-pyrrolo[2,3-d]pyrimidin-4-yl)-1,3,4,6,7,7a-hexahydropyrrolo[3,4-c]pyridine-2-sulfonamide], the pEC50 was 7.10 at JAK2, 7.27 at JAK3, 6.33 on TYK2 and 7.40 on JAK1.

For `C[C@@]12CN(c3ncnc4[nH]ccc34)CC[C@@H]1CN(S(=O)(=O)NCC#N)C2` (racemic) [Example 30, (3aS*,7aS*)—N-(cyanomethyl)-3a-methyl-5-(7H-pyrrolo[2,3-d]pyrimidin-4-yl)-1,3,4,6,7,7a-hexahydropyrrolo[3,4-c]pyridine-2-sulfonamide], the negative logarithm of the EC50 (pEC50) at JAK2 is 7.25; at JAK3, 7.04; on TYK2, 6.44; at JAK1, 7.54.

For `C[C@@]12CN(c3ncnc4[nH]ccc34)CC[C@@H]1CN(S(=O)(=O)CC(F)(F)F)C2` (racemic) [Example 31, 4-[(3aS*,7aS*)-3a-methyl-2-(2,2,2-trifluoroethylsulfonyl)-1,3,4,6,7,7a-hexahydropyrrolo[3,4-c]pyridin-5-yl]-7H-pyrrolo[2,3-d]pyrimidine], the pEC50 at JAK2 was 6.34; at JAK3 it was 6.56; on TYK2, 5.50; at JAK1 it was 6.88.

On to `C[C@]12CN(C(=O)CC#N)C[C@H]1CCN(c1ncnc3[nH]ccc13)C2` (racemic) [Example 32, 3-[(3aS*,7aS*)-3a-methyl-5-(7H-pyrrolo[2,3-d]pyrimidin-4-yl)-1,3,4,6,7,7a-hexahydropyrrolo[3,4-c]pyridin-2-yl]-3-oxo-propanenitrile], for which the negative-log EC50 (pEC50) on JAK2 is 7.17; at JAK3 it was 6.79; at TYK2, 6.51; at JAK1, 7.80.

Consider `C[C@]12CN(c3ccc(S(C)(=O)=O)cn3)C[C@H]1CCN(c1ncnc3[nH]ccc13)C2` (racemic) [Example 35], for which the negative-log EC50 (pEC50) was 6.88 at JAK2, 7.02 at JAK3, 5.61 at TYK2 and 7.89 at JAK1.

Turning to `C[C@]12CN(c3ncccc3CO)C[C@H]1CCN(c1ncnc3[nH]ccc13)C2` (racemic) [Example 36, [2-[(3aS*,7aS*)-3a-methyl-5-(7H-pyrrolo[2,3-d]pyrimidin-4-yl)-1,3,4,6,7,7a-hexahydropyrrolo[3,4-c]pyridin-2-yl]-3-pyridyl]methanol], the pEC50 at JAK2 was 6.92; on JAK3, 6.63; at TYK2 it was 5.95; at JAK1, 7.16.

Regarding `C[C@]12CN(c3ncc(Br)cc3CO)C[C@H]1CCN(c1ncnc3[nH]ccc13)C2` (racemic) [Example 37, [2-[(3aS*,7aS*)-3a-methyl-5-(7H-pyrrolo[2,3-d]pyrimidin-4-yl)-1,3,4,6,7,7a-hexahydropyrrolo[3,4-c]pyridin-2-yl]-5-bromo-3-pyridyl]methanol], the pEC50 on JAK2 was 7.32; at JAK3 it was 7.42; at TYK2 it was 6.21; on JAK1, 7.92.

As for `C[C@]12CN(c3ccc(S(C)(=O)=O)cc3)C[C@H]1CCN(c1ncnc3[nH]ccc13)C2` (racemic) [Example 38, 4-[(3aR*,7aS*)-3a-methyl-2-(4-methylsulfonylphenyl)-1,3,4,6,7,7a-hexahydropyrrolo[3,4-c]pyridin-5-yl]-7H-pyrrolo[2,3-d]pyrimidine], the negative logarithm of the EC50 (pEC50) was 7.49 on JAK2, 7.15 on JAK3, 6.47 at TYK2 and 8.15 on JAK1.

As for `C[C@]12CN(c3ccncn3)C[C@H]1CCN(c1ncnc3[nH]ccc13)C2` (racemic) [Example 39, 4-[(3aR*,7aS*)-3a-methyl-2-pyrimidin-4-yl-1,3,4,6,7,7a-hexahydropyrrolo[3,4-c]pyridin-5-yl]-7H-pyrrolo[2,3-d]pyrimidine], the negative logarithm of the EC50 (pEC50) on JAK2 is 7.14; at JAK3 it was 6.70; at TYK2, 6.11; at JAK1, 7.74.
